According to ChEMBL document CHEMBL1137849, “Rational design of 6-methylsulfonylindoles as selective cyclooxygenase-2 inhibitors” (Bioorg Med Chem Lett, 2004):

System: not listed separately
Assay: Plasma half life of compound was determined in rat
Assay type: ADME
Conditions: not given

SMILES	half-life
Cc1[nH]c2cc(S(C)(=O)=O)ccc2c1Cc1ccc(F)cc1F	4.1 h
CS(=O)(=O)c1ccc2c(Sc3ccc(F)cc3F)c(C#N)[nH]c2c1	6.3 h
Cc1[nH]c2cc(S(C)(=O)=O)ccc2c1Oc1ccc(F)cc1	6.2 h

Target: T1, Prostaglandin G/H synthase 1 (Homo sapiens, UniProt P23219)
Assay: Inhibitory concentration against human whole blood Prostaglandin G/H synthase 1 enzyme activity
Conditions: not given

T1 sequence (P23219 whole entry): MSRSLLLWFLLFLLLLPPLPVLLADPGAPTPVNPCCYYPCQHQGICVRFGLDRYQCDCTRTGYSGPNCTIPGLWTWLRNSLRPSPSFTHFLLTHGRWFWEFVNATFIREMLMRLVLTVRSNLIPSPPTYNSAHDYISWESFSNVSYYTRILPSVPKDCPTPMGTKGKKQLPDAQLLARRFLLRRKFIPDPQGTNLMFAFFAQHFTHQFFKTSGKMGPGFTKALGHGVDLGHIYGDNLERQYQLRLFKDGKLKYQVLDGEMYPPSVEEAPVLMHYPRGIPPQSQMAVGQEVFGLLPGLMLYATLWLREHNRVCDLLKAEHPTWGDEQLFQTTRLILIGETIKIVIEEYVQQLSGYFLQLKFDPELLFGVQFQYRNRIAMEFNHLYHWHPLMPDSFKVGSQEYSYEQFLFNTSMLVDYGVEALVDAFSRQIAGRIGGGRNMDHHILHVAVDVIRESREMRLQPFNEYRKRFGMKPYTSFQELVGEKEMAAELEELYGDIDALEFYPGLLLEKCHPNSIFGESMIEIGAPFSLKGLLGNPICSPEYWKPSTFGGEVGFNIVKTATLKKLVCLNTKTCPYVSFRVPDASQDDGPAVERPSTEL

SMILES	IC50
COC(=O)c1[nH]c2cc(S(C)(=O)=O)ccc2c1Sc1ccc(F)cc1F	17.2 µM
COc1ccc(Oc2c(C)[nH]c3cccc(S(C)(=O)=O)c23)cc1	6 µM
COc1ccc(Sc2c(C#N)[nH]c3cc(S(C)(=O)=O)ccc23)c(Cl)c1	8.1 µM
CS(=O)(=O)c1ccc2c(Sc3ccccc3Cl)c(C#N)[nH]c2c1	> 67 µM
Cc1[nH]c2cc(S(C)(=O)=O)ccc2c1Sc1ccccn1	30 µM
Cc1[nH]c2cc(S(C)(=O)=O)ccc2c1Cc1ccc(F)cc1F	98 µM
COc1ccc(C(=O)c2c(C)[nH]c3cc(S(C)(=O)=O)ccc23)cc1	3.5 µM
CS(=O)(=O)c1ccc2c(Sc3ccc(F)cc3)c(CO)[nH]c2c1	> 100 µM
COC(=O)c1[nH]c2cc(S(C)(=O)=O)ccc2c1Sc1ccc(F)cc1	9.3 µM
Cc1[nH]c2cc(S(C)(=O)=O)ccc2c1Oc1ccc(Cl)cc1	12 µM
COc1ccc(Sc2c(C)[nH]c3cc(S(C)(=O)=O)ccc23)cc1	18 µM
CS(=O)(=O)c1ccc2c(Sc3ccc(F)cc3F)c(C#N)[nH]c2c1	> 60 µM
Cc1[nH]c2cc(S(C)(=O)=O)ccc2c1Cc1ccc(Cl)cc1	71.1 µM
Cc1[nH]c2cc(S(C)(=O)=O)ccc2c1Oc1ccc(F)cc1F	33 µM
Cc1[nH]c2cc(S(C)(=O)=O)ccc2c1Oc1ccc(Cl)cc1Cl	33 µM
Cc1[nH]c2cc(S(C)(=O)=O)ccc2c1C(=O)c1ccc(F)cc1	2.44 µM
Cc1[nH]c2cc(S(C)(=O)=O)ccc2c1Cc1ccc(F)cc1	63.9 µM
Cc1[nH]c2cc(S(C)(=O)=O)ccc2c1Sc1ccc(F)cc1	55.7 µM
CS(=O)(=O)c1ccc2c(Sc3ccc(F)cc3F)c(C(N)=O)[nH]c2c1	> 40 µM
Cc1[nH]c2cc(S(C)(=O)=O)ccc2c1Cc1ccccc1Cl	118 µM
Cc1[nH]c2cc(S(C)(=O)=O)ccc2c1Sc1ccc(F)cc1F	18.2 µM
CS(=O)(=O)c1ccc2c(Sc3ccc(F)cc3)c(C(N)=O)[nH]c2c1	> 40 µM
CS(=O)(=O)c1ccc2c(Sc3ccc(F)cc3)c(C#N)[nH]c2c1	> 125 µM
COc1ccc(Oc2c(C)[nH]c3cc(S(C)(=O)=O)ccc23)cc1	6 µM
COc1ccc(Cc2c(C)[nH]c3cc(S(C)(=O)=O)ccc23)cc1	7.3 µM

System: not listed separately
Assay: Area under curve plasma concentration of compound in rat when administered perorally at 10 mg/kg dose
Assay type: ADME, organism-based
Parameters: dose 10 mg/kg, route oral
Conditions: in vivo, po

SMILES	AUC
CS(=O)(=O)c1ccc2c(Sc3ccccc3Cl)c(C#N)[nH]c2c1	56 µM·h
Cc1[nH]c2cc(S(C)(=O)=O)ccc2c1Cc1ccc(F)cc1F	72 µM·h
CS(=O)(=O)c1ccc2c(Sc3ccc(F)cc3F)c(C#N)[nH]c2c1	316 µM·h
Cc1[nH]c2cc(S(C)(=O)=O)ccc2c1Oc1ccc(F)cc1	35 µM·h
Cc1[nH]c2cc(S(C)(=O)=O)ccc2c1Sc1ccc(F)cc1F	118 µM·h

Target: not listed separately
Assay: In vitro inhibitory concentration against Prostaglandin G/H synthase 1 enzyme activity
Conditions: not given

SMILES	IC50
COc1ccc(Oc2c(C)[nH]c3cccc(S(C)(=O)=O)c23)cc1	> 30 µM
Cc1[nH]c2cc(S(C)(=O)=O)ccc2c1Cc1ccc(F)cc1F	> 40 µM
COc1ccc(C(=O)c2c(C)[nH]c3cc(S(C)(=O)=O)ccc23)cc1	> 40 µM
Cc1[nH]c2cc(S(C)(=O)=O)ccc2c1Oc1ccc(Cl)cc1	30 µM
COc1ccc(Sc2c(C)[nH]c3cc(S(C)(=O)=O)ccc23)cc1	9 µM
Cc1[nH]c2cc(S(C)(=O)=O)ccc2c1Cc1ccc(Cl)cc1	> 40 µM
Cc1[nH]c2cc(S(C)(=O)=O)ccc2c1Oc1ccc(F)cc1F	39.5 µM
Cc1[nH]c2cc(S(C)(=O)=O)ccc2c1Oc1ccc(Cl)cc1Cl	25.8 µM
Cc1[nH]c2cc(S(C)(=O)=O)ccc2c1C(=O)c1ccc(F)cc1	100 µM
Cc1[nH]c2cc(S(C)(=O)=O)ccc2c1Oc1ccc(F)cc1	> 40 µM
Cc1[nH]c2cc(S(C)(=O)=O)ccc2c1Cc1ccc(F)cc1	> 40 µM
Cc1[nH]c2cc(S(C)(=O)=O)ccc2c1Sc1ccc(F)cc1	> 40 µM
COc1ccc(Oc2c(C)[nH]c3cc(S(C)(=O)=O)ccc23)cc1	> 30 µM
COc1ccc(Cc2c(C)[nH]c3cc(S(C)(=O)=O)ccc23)cc1	> 45 µM

Target: T2, Prostaglandin G/H synthase 2 (Homo sapiens, UniProt P35354)
T2 sequence (P35354 whole entry): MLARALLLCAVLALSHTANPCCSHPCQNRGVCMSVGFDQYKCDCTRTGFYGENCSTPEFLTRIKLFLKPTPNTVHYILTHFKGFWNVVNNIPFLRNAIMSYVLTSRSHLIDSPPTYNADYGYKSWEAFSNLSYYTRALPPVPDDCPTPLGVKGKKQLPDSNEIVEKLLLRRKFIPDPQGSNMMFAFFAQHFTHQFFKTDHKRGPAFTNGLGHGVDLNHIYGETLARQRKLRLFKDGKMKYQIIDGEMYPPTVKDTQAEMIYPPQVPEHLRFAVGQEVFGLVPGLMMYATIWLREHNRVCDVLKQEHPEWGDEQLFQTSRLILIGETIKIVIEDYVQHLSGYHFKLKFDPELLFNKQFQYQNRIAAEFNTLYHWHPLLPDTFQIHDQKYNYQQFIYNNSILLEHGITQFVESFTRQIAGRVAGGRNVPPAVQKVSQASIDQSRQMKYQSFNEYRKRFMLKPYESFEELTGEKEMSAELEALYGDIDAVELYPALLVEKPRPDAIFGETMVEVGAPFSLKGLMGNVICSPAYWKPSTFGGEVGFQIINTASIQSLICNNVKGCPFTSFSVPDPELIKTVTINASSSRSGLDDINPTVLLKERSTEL
Assay: In vitro inhibitory concentration against Prostaglandin G/H synthase 2 enzyme activity
Conditions: not given

SMILES	IC50
COC(=O)c1[nH]c2cc(S(C)(=O)=O)ccc2c1Sc1ccc(F)cc1F	0.38 µM
COc1ccc(Oc2c(C)[nH]c3cccc(S(C)(=O)=O)c23)cc1	0.2 µM
COc1ccc(Sc2c(C#N)[nH]c3cc(S(C)(=O)=O)ccc23)c(Cl)c1	0.33 µM
CS(=O)(=O)c1ccc2c(Sc3ccccc3Cl)c(C#N)[nH]c2c1	0.13 µM
Cc1[nH]c2cc(S(C)(=O)=O)ccc2c1Sc1ccccn1	1.78 µM
Cc1[nH]c2cc(S(C)(=O)=O)ccc2c1[S+]([O-])c1ccc(F)cc1 (centres undefined)	> 40 µM
Cc1[nH]c2cc(S(C)(=O)=O)ccc2c1Cc1ccc(F)cc1F	0.26 µM
CS(=O)(=O)c1ccc2c(Sc3ccc(F)cc3)c(CO)[nH]c2c1	0.42 µM
COC(=O)c1[nH]c2cc(S(C)(=O)=O)ccc2c1Sc1ccc(F)cc1	0.8 µM
Cc1[nH]c2cc(S(C)(=O)=O)ccc2c1Oc1ccc(Cl)cc1	0.3 µM
COc1ccc(Sc2c(C)[nH]c3cc(S(C)(=O)=O)ccc23)cc1	0.47 µM
CNC(=O)c1[nH]c2cc(S(C)(=O)=O)ccc2c1Sc1ccc(F)cc1F	> 40 µM
CS(=O)(=O)c1ccc2c(Sc3ccc(F)cc3F)c(C#N)[nH]c2c1	0.94 µM
CS(=O)(=O)c1ccc2c(Sc3ccc(F)cc3)c(C(=O)O)[nH]c2c1	> 40 µM
Cc1[nH]c2cc(S(C)(=O)=O)ccc2c1Cc1ccc(Cl)cc1	0.26 µM
CS(=O)(=O)Cc1[nH]c2cc(S(C)(=O)=O)ccc2c1Sc1ccccc1Cl	> 40 µM
Cc1[nH]c2cc(S(C)(=O)=O)ccc2c1Oc1ccc(F)cc1F	0.11 µM
Cc1[nH]c2cc(S(C)(=O)=O)ccc2c1Oc1ccc(Cl)cc1Cl	0.11 µM
Cc1[nH]c2cc(S(C)(=O)=O)ccc2c1C(=O)c1ccc(F)cc1	0.66 µM
Cc1[nH]c2cc(S(C)(=O)=O)ccc2c1Oc1ccc(F)cc1	0.03 µM
Cc1[nH]c2cc(S(C)(=O)=O)ccc2c1Cc1ccc(F)cc1	0.08 µM
Cc1[nH]c2cc(S(C)(=O)=O)ccc2c1Sc1ccc(F)cc1	0.02 µM
CS(=O)(=O)c1ccc2c(Sc3ccc(F)cc3F)c(C(N)=O)[nH]c2c1	2.24 µM
Cc1[nH]c2cc(S(C)(=O)=O)ccc2c1Cc1ccccc1Cl	0.07 µM
CC(=O)OCc1[nH]c2cc(S(C)(=O)=O)ccc2c1Sc1ccccc1Cl	> 40 µM
CS(=O)(=O)c1ccc2c(Sc3ccc(F)cc3)c(C(N)=O)[nH]c2c1	1.21 µM
Cc1[nH]c2cc(S(C)(=O)=O)ccc2c1S(=O)(=O)c1ccc(F)cc1	> 40 µM
COc1ccc(Oc2c(C)[nH]c3cc(S(C)(=O)=O)ccc23)cc1	0.2 µM
COc1ccc(Cc2c(C)[nH]c3cc(S(C)(=O)=O)ccc23)cc1	0.27 µM

Target: T1, Prostaglandin G/H synthase 1
Assay: Inhibitory concentration against human whole blood Prostaglandin G/H synthase 1
Conditions: not given

SMILES	IC50
Cc1[nH]c2cc(S(C)(=O)=O)ccc2c1Oc1ccc(F)cc1	37 µM

System: not listed separately
Assay: In vitro inhibitory concentration against Prostaglandin G/H synthase 1
Conditions: not given

SMILES	IC50
Cc1[nH]c2cc(S(C)(=O)=O)ccc2c1Cc1ccccc1Cl	> 40 µM

Target: T2, Prostaglandin G/H synthase 2
Assay: Inhibitory concentration against human whole blood Prostaglandin G/H synthase 2 enzyme activity was determined
Conditions: not given

SMILES	IC50
COC(=O)c1[nH]c2cc(S(C)(=O)=O)ccc2c1Sc1ccc(F)cc1F	0.38 µM
COc1ccc(Oc2c(C)[nH]c3cccc(S(C)(=O)=O)c23)cc1	1.6 µM
COc1ccc(Sc2c(C#N)[nH]c3cc(S(C)(=O)=O)ccc23)c(Cl)c1	1.09 µM
CS(=O)(=O)c1ccc2c(Sc3ccccc3Cl)c(C#N)[nH]c2c1	0.57 µM
Cc1[nH]c2cc(S(C)(=O)=O)ccc2c1Sc1ccccn1	5.2 µM
Cc1[nH]c2cc(S(C)(=O)=O)ccc2c1Cc1ccc(F)cc1F	8.4 µM
COc1ccc(C(=O)c2c(C)[nH]c3cc(S(C)(=O)=O)ccc23)cc1	2.6 µM
CS(=O)(=O)c1ccc2c(Sc3ccc(F)cc3)c(CO)[nH]c2c1	5.9 µM
COC(=O)c1[nH]c2cc(S(C)(=O)=O)ccc2c1Sc1ccc(F)cc1	1.1 µM
Cc1[nH]c2cc(S(C)(=O)=O)ccc2c1Oc1ccc(Cl)cc1	3.8 µM
COc1ccc(Sc2c(C)[nH]c3cc(S(C)(=O)=O)ccc23)cc1	4.8 µM
CS(=O)(=O)c1ccc2c(Sc3ccc(F)cc3F)c(C#N)[nH]c2c1	1.27 µM
Cc1[nH]c2cc(S(C)(=O)=O)ccc2c1Cc1ccc(Cl)cc1	5.6 µM
Cc1[nH]c2cc(S(C)(=O)=O)ccc2c1Oc1ccc(F)cc1F	4.1 µM
Cc1[nH]c2cc(S(C)(=O)=O)ccc2c1Oc1ccc(Cl)cc1Cl	4.1 µM
Cc1[nH]c2cc(S(C)(=O)=O)ccc2c1C(=O)c1ccc(F)cc1	1.72 µM
Cc1[nH]c2cc(S(C)(=O)=O)ccc2c1Oc1ccc(F)cc1	2 µM
Cc1[nH]c2cc(S(C)(=O)=O)ccc2c1Cc1ccc(F)cc1	11.3 µM
Cc1[nH]c2cc(S(C)(=O)=O)ccc2c1Sc1ccc(F)cc1	2.2 µM
CS(=O)(=O)c1ccc2c(Sc3ccc(F)cc3F)c(C(N)=O)[nH]c2c1	> 40 µM
Cc1[nH]c2cc(S(C)(=O)=O)ccc2c1Cc1ccccc1Cl	5.5 µM
Cc1[nH]c2cc(S(C)(=O)=O)ccc2c1Sc1ccc(F)cc1F	0.77 µM
CS(=O)(=O)c1ccc2c(Sc3ccc(F)cc3)c(C(N)=O)[nH]c2c1	> 40 µM
CS(=O)(=O)c1ccc2c(Sc3ccc(F)cc3)c(C#N)[nH]c2c1	2.3 µM
COc1ccc(Oc2c(C)[nH]c3cc(S(C)(=O)=O)ccc23)cc1	1.6 µM
COc1ccc(Cc2c(C)[nH]c3cc(S(C)(=O)=O)ccc23)cc1	5.1 µM
